The values that follow come from patent US20090170812A1, “Transcription factor modulating compounds and methods of use thereof” (priority 2006, published 2009).

SMILES strings stand for the structures. Bounds are passed on as bounds.

One data set deals with LcrF (VirF) (Yersinia pestis, UniProt P28808). The data set is described as follows: biochemical. It counts as binding, Y. pseudotuberculosis.
The target of another data set is T1, ExsA (Pseudomonas aeruginosa, UniProt P26993).
T1 construct: made in house
T1 sequence (P26993 1-278): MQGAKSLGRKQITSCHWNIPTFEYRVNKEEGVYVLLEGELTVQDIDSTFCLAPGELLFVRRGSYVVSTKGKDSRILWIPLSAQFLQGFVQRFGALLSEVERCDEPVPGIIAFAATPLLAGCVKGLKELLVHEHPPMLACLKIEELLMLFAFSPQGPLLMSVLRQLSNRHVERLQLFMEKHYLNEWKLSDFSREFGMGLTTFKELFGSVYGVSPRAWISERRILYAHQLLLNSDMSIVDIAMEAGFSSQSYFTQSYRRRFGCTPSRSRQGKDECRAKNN
The data set is described as follows: In vitro activity of Mar inhibitors against ExsA: cell-free DNA binding assay. The conditions noted are these: purified ExsA from P. aeruginosa, inhibition of DNA binding in vitro.

The subject of data set [1] is Yersinia pseudotuberculosis.
In a further data set the test system is P. aeruginosa. The data set is described as follows: Whole cell assay: cytotoxicity of P. aeruginosa toward J774 cells (CytoTox 96, LDH release). The conditions noted are these: percent cytotoxicity of treated P. aeruginosa toward J774 cells.

Sequence of LcrF (VirF) (P28808 whole entry, looked up): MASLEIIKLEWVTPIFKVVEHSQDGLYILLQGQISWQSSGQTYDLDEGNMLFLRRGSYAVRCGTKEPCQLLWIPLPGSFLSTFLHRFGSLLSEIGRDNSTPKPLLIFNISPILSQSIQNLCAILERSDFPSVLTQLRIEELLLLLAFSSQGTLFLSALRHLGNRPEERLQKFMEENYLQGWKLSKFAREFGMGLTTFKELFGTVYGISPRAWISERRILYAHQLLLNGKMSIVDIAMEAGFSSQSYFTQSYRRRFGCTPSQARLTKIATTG

Regarding `CCc1cc(-c2nc3ccc([N+](=O)[O-])cc3n2O)ccc1NC(=O)c1ccc(C(C)=O)cc1` [AA], the EC50 on LcrF (VirF) and on ExsA was 10.1 to 25 µM in each case. Moreover, the “Cytotoxicity at 50 μg/mL Yersinia” value in data set [1] is “* (key: *: percent cytotoxicity above 75% at 50 μg/mL; **: cytotoxicities below 75% at 50 μg/mL)”. Further, the “Cytotoxicity at 50 μg/mL Pseudomonas” value in the data set on P. aeruginosa was “* (percent cytotoxicities above 75% at 50 mg/mL)”.
Turning to `COc1cc(C(=O)Nc2ccc(-c3nc4ccc([N+](=O)[O-])cc4n3O)cc2)ccc1F` [AB], the EC50 on LcrF (VirF) and at ExsA was 10.1 to 25 µM in each case. The “Cytotoxicity at 50 μg/mL Yersinia” value in data set [1] is recorded as “* (key: *: percent cytotoxicity above 75% at 50 μg/mL; **: cytotoxicities below 75% at 50 μg/mL)”. In addition, the “Cytotoxicity at 50 μg/mL Pseudomonas” value in the data set on P. aeruginosa is listed as “* (percent cytotoxicities above 75% at 50 mg/mL)”.
Turning to `O=C(Nc1ccc(-c2nc3ccc([N+](=O)[O-])cc3n2O)cc1)c1ccccc1O` [AC], the EC50 on LcrF (VirF) and at ExsA was 10.1 to 25 µM in each case. In addition, the “Cytotoxicity at 50 μg/mL Yersinia” value in data set [1] is reported as “* (key: *: percent cytotoxicity above 75% at 50 μg/mL; **: cytotoxicities below 75% at 50 μg/mL)”. Further, in the data set with P. aeruginosa, the “Cytotoxicity at 50 μg/mL Pseudomonas” value is given as “* (percent cytotoxicities above 75% at 50 mg/mL)”.
With `CCc1cc(-c2nc3ccc([N+](=O)[O-])cc3n2O)ccc1NC(=O)/C=C/c1ccc(C)cc1` [AE], the EC50 at LcrF (VirF) and at ExsA was less than 10 µM each time. For the same molecule, the “Cytotoxicity at 50 μg/mL Yersinia” value in data set [1] is “* (key: *: percent cytotoxicity above 75% at 50 μg/mL; **: cytotoxicities below 75% at 50 μg/mL)”. In the data set with P. aeruginosa, the “Cytotoxicity at 50 μg/mL Pseudomonas” value is given as “* (percent cytotoxicities above 75% at 50 mg/mL)”.
With `CC(=O)c1ccc(C(=O)Nc2ccc(-c3nc4ccc([N+](=O)[O-])cc4n3O)nc2)cc1` [AG], the figures for the EC50 at LcrF (VirF) and on ExsA were greater than 25.1 µM and 10.1 to 25 µM, respectively. Besides, in data set [1], the “Cytotoxicity at 50 μg/mL Yersinia” value is listed as “* (key: *: percent cytotoxicity above 75% at 50 μg/mL; **: cytotoxicities below 75% at 50 μg/mL)”. The “Cytotoxicity at 50 μg/mL Pseudomonas” value in the data set with P. aeruginosa is reported as “* (percent cytotoxicities above 75% at 50 mg/mL)”.
For `O=C(Nc1ccc(-c2nc3ccc([N+](=O)[O-])cc3n2O)c(F)c1)c1ccc(F)cc1` [AH] the same measures were 10.1 to 25 µM, 10.1 to 25 µM, “* (key: *: percent cytotoxicity above 75% at 50 μg/mL; **: cytotoxicities below 75% at 50 μg/mL)” and “* (percent cytotoxicities above 75% at 50 mg/mL)”.
The corresponding values for `COc1cc(NC(=O)c2ccc(F)cc2)ccc1-c1nc2ccc([N+](=O)[O-])cc2n1O` [AI] are greater than 25.1 µM, 10.1 to 25 µM, “* (key: *: percent cytotoxicity above 75% at 50 μg/mL; **: cytotoxicities below 75% at 50 μg/mL)” and “* (percent cytotoxicities above 75% at 50 mg/mL)”.
The corresponding values for `O=C(Nc1ccc(-c2nc3ccc([N+](=O)[O-])cc3n2O)cn1)c1ccc(F)cc1` [AJ] are 10.1 to 25 µM, 10.1 to 25 µM, “* (key: *: percent cytotoxicity above 75% at 50 μg/mL; **: cytotoxicities below 75% at 50 μg/mL)” and “* (percent cytotoxicities above 75% at 50 mg/mL)”.
As for `O=C(/C=C/c1ccc(F)c(CP(=O)(O)O)c1)Nc1ccc(-c2nc3ccc([N+](=O)[O-])cc3n2O)cc1` [AM], the EC50 at LcrF (VirF) and on ExsA was 10.1 to 25 µM throughout. Further, the “Cytotoxicity at 50 μg/mL Yersinia” value in data set [1] was “* (key: *: percent cytotoxicity above 75% at 50 μg/mL; **: cytotoxicities below 75% at 50 μg/mL)”. Besides, the “Cytotoxicity at 50 μg/mL Pseudomonas” value in the data set with P. aeruginosa is listed as “* (percent cytotoxicities above 75% at 50 mg/mL)”.
Take `O=C(/C=C/c1ccc(F)cc1)Nc1ccc(-c2nc3ccc([N+](=O)[O-])cc3n2O)cn1` [AN]: the EC50 at LcrF (VirF) and on ExsA was less than 10 µM throughout. For the same molecule, in data set [1], the “Cytotoxicity at 50 μg/mL Yersinia” value was “* (key: *: percent cytotoxicity above 75% at 50 μg/mL; **: cytotoxicities below 75% at 50 μg/mL)”. In addition, in the data set on P. aeruginosa, the “Cytotoxicity at 50 μg/mL Pseudomonas” value was “* (percent cytotoxicities above 75% at 50 mg/mL)”.
Turning to `O=C(/C=C/c1ccc(F)cc1)Nc1ccc(-c2nc3ccc([N+](=O)[O-])cc3n2O)nc1` [AO], the figures for the EC50 at LcrF (VirF) and on ExsA were 10.1 to 25 µM and less than 10 µM, respectively. In addition, the “Cytotoxicity at 50 μg/mL Yersinia” value in data set [1] was “* (key: *: percent cytotoxicity above 75% at 50 μg/mL; **: cytotoxicities below 75% at 50 μg/mL)”. Further, the “Cytotoxicity at 50 μg/mL Pseudomonas” value with P. aeruginosa is “* (percent cytotoxicities above 75% at 50 mg/mL)”.
Regarding `O=C(/C=C/c1ccc(F)cc1F)Nc1ccc(-c2nc3ccc([N+](=O)[O-])cc3n2O)nc1` [AP], the EC50 on LcrF (VirF) and at ExsA was less than 10 µM each time. Moreover, in data set [1], the “Cytotoxicity at 50 μg/mL Yersinia” value is listed as “* (key: *: percent cytotoxicity above 75% at 50 μg/mL; **: cytotoxicities below 75% at 50 μg/mL)”. In the data set with P. aeruginosa, the “Cytotoxicity at 50 μg/mL Pseudomonas” value is on record as “* (percent cytotoxicities above 75% at 50 mg/mL)”.
For the molecule `O=C(/C=C/c1ccc(F)cc1F)Nc1ccc(-c2nc3ccc([N+](=O)[O-])cc3n2O)cn1` [AQ], the EC50 on LcrF (VirF) and at ExsA was less than 10 µM throughout. In data set [1], the “Cytotoxicity at 50 μg/mL Yersinia” value is reported as “* (key: *: percent cytotoxicity above 75% at 50 μg/mL; **: cytotoxicities below 75% at 50 μg/mL)”. In addition, in the data set with P. aeruginosa, the “Cytotoxicity at 50 μg/mL Pseudomonas” value is “* (percent cytotoxicities above 75% at 50 mg/mL)”.
As to `CCOP(=O)(Cc1cc(/C=C/C(=O)Nc2ccc(-c3nc4ccc([N+](=O)[O-])cc4n3O)cc2)ccc1F)OCC` [AT], the EC50 at LcrF (VirF) and at ExsA was less than 10 µM throughout. Besides, in data set [1], the “Cytotoxicity at 50 μg/mL Yersinia” value is on record as “* (key: *: percent cytotoxicity above 75% at 50 μg/mL; **: cytotoxicities below 75% at 50 μg/mL)”. Besides, the “Cytotoxicity at 50 μg/mL Pseudomonas” value in the data set on P. aeruginosa is given as “* (percent cytotoxicities above 75% at 50 mg/mL)”.
For `O=C(/C=C/c1ccc(F)cc1)Nc1ccc(-c2nc3ncc([N+](=O)[O-])cc3n2O)c(F)c1` [AV], the EC50 on LcrF (VirF) and on ExsA was less than 10 µM throughout. The “Cytotoxicity at 50 μg/mL Yersinia” value in data set [1] is “* (key: *: percent cytotoxicity above 75% at 50 μg/mL; **: cytotoxicities below 75% at 50 μg/mL)”. Moreover, the “Cytotoxicity at 50 μg/mL Pseudomonas” value in the data set with P. aeruginosa was “* (percent cytotoxicities above 75% at 50 mg/mL)”.
Take `O=C(/C=C/c1ccc(F)cc1)Nc1ccc(-c2nc3ccc([N+](=O)[O-])cc3n2O)c(F)c1` [AW]: the results for the EC50 at LcrF (VirF) and at ExsA were less than 10 µM and 10.1 to 25 µM, respectively. Besides, in data set [1], the “Cytotoxicity at 50 μg/mL Yersinia” value is “** (key: *: percent cytotoxicity above 75% at 50 μg/mL; **: cytotoxicities below 75% at 50 μg/mL)”. Also, in the data set on P. aeruginosa, the “Cytotoxicity at 50 μg/mL Pseudomonas” value is given as “* (percent cytotoxicities above 75% at 50 mg/mL)”.
Take `CC(=O)c1ccc(C(=O)Nc2ccc(-c3nc4cc(C)c([N+](=O)[O-])cc4n3O)cc2)cc1` [BE]: the EC50 on LcrF (VirF) and on ExsA was less than 10 µM throughout. Besides, the “Cytotoxicity at 50 μg/mL Yersinia” value in data set [1] was “* (key: *: percent cytotoxicity above 75% at 50 μg/mL; **: cytotoxicities below 75% at 50 μg/mL)”. In addition, the “Cytotoxicity at 50 μg/mL Pseudomonas” value with P. aeruginosa is “* (percent cytotoxicities above 75% at 50 mg/mL)”.
In the case of `COc1cc(NC(=O)c2ccc(C(C)=O)cc2)ccc1-c1nc2ccc([N+](=O)[O-])cc2n1O` [BG], the 50% effective concentration (EC50) on LcrF (VirF) is greater than 25.1 µM; at ExsA it was 10.1 to 25 µM. The “Cytotoxicity at 50 μg/mL Yersinia” value in data set [1] is given as “* (key: *: percent cytotoxicity above 75% at 50 μg/mL; **: cytotoxicities below 75% at 50 μg/mL)”. The “Cytotoxicity at 50 μg/mL Pseudomonas” value in the data set with P. aeruginosa is on record as “** (cytotoxicities below 75% at 50 mg/mL)”.
The corresponding values for `COc1cc(NC(=O)/C=C/c2ccc(F)cc2)ccc1-c1nc2ccc([N+](=O)[O-])cc2n1O` [BH] are 10.1 to 25 µM, 10.1 to 25 µM, “* (key: *: percent cytotoxicity above 75% at 50 μg/mL; **: cytotoxicities below 75% at 50 μg/mL)” and “* (percent cytotoxicities above 75% at 50 mg/mL)”.
For `O=C(Nc1ccc(-c2nc3ccc([N+](=O)[O-])cc3n2O)cc1)C1=Cc2ccccc2OC1` [BM] the same measures were 10.1 to 25 µM, 10.1 to 25 µM, “* (key: *: percent cytotoxicity above 75% at 50 μg/mL; **: cytotoxicities below 75% at 50 μg/mL)” and “* (percent cytotoxicities above 75% at 50 mg/mL)”.
The corresponding values for `O=C(/C=C/c1ccc(F)cc1)Nc1ccc(-c2nc3ccc([N+](=O)[O-])cc3n2OCP(=O)(O)O)cc1` [Compound AL, (2-{4-[(E)-3-(4-Fluoro-phenyl)-acryloylamino]-phenyl}-6-nitro-benzoimidazol-1-yloxymethyl)-phosphonic Acid] are less than 10 µM, less than 10 µM, “** (key: *: percent cytotoxicity above 75% at 50 μg/mL; **: cytotoxicities below 75% at 50 μg/mL)” and “* (percent cytotoxicities above 75% at 50 mg/mL)”.
For the molecule `CC(=O)c1ccc(/C=C/C(=O)Nc2ccc(-c3nc4ccc([N+](=O)[O-])cc4n3O)cc2)cc1` [Compound BQ, (E)-3-(4-Acetyl-phenyl)-N-[4-(1-hydroxy-6-nitro-1H-benzoimidazol-2-yl)-phenyl]-acrylamide], the EC50 on LcrF (VirF) was 10.1 to 25 µM; on ExsA, less than 10 µM. The “Cytotoxicity at 50 μg/mL Pseudomonas” value with P. aeruginosa is listed as “** (cytotoxicities below 75% at 50 mg/mL)”.
For `O=C(/C=C/c1ccc(F)cc1)Nc1ccc(-c2nc3ccc(-n4cccn4)cc3n2O)cc1` [Compound CL, (E)-3-(4-Fluoro-phenyl)-N-[4-(1-hydroxy-6-pyrazol-1-yl-1H-benzoimidazol-2-yl)-phenyl]-acrylamide] the same measures were greater than 25.1 µM, greater than 25.1 µM and “* (percent cytotoxicities above 75% at 50 mg/mL)”.
